Assay results reported in patent publication US9856218B2, “Inhibitors of PRMT5 and methods of their use” (Ohio State Innovation Foundation, priority 2013, dated 2018).

Legend:
Assay type in all cases: cell-based
[1] = tested on: Mantle cell lymphoma cell line Jeko; test: MTS anti-proliferation assay
Description: MTS proliferation assays were performed according the CellTiter 96™ Aqueous Cell Proliferation Assay Technical Bulletin (Promega, Madison, Wis.). 5×10^5 cells were plated in each well of a 96-well plate at 37° C. and assayed for proliferation at 24, 48, and 72 hr. Proliferation signal at 50% of control was used as IC50 for growth.
(§1) Following the synthesis of 14 compounds, the anti-proliferation and pro-apoptotic activities of those compounds was evaluated in Mantle cell lymphoma cell line Jeko. Replicate cultures of Jeko were incubated in DMSO and the compounds for 24, 48 and 72 hours. FITC-Annexin V-PI stained flow cytometry was used to detect the apoptotic population of cells (Table 4).

[2] = tested on: Mantle cell lymphoma cell line Jeko; test: Induction of apoptosis, FITC-Annexin V-PI flow cytometry
Description: Analysis by flow cytometry. Cell viability was also measured by flow cytometry at 24 and 48 hr using annexin-V-FITC and propidium iodide (PI) according to the manufacturer's instructions (BD Biosciences).
as §1

[3] = tested on: FLT3 RNA and protein in MV4-11, THP-1 cells and FLT3-ITD patient samples; test: FLT3 RNA (qRT-PCR) and protein (western blotting) after PRMT5 inhibition; conditions: MV4-11, THP-1, FLT3-ITD patient samples
Description: Whole cell lysates were prepared by suspending cell pellets in RIPA buffer for 20 min (1% NP-40, 0.1% SDS, 150 mM NaCl, 50 mM Tris, pH 8.0), then supplemented with 1× complete EDTA free protease inhibitor (Roche) and 1× PhosStop (Roche). Lysates were separated by 4-20% SDS-PAGE and transferred to PVDF membrane (GE Healthcare, Piscataway, N.J.). Membranes were blocked with 5% milk or BSA in 1×TBS with 0.1% Tween 20 for 1 hour at room temperature with shaking. […]
(§2) Total RNA was extracted using TriZol reagent (Invitrogen) and subjected to Reverse Transcription using SuperScript III reagents (Invitrogen). Quantitative Real-Time PCR was performed on resulting cDNA using commercially available TaqMan Gene Expression Assay primers and probes, and the 7900HT Fast Real-Time PCR System (Applied Biosystems). Mature microRNA levels were quantified using reverse transcription product made with TaqMan MicroRNA Reverse Transcription Kit (Life Technologies).
PRMT5 has been reported to interact with, and to be regulated via posttranslational phosphorylation by mutant constitutively active tyrosine kinase; JAK2V617F (Liu, F., et al. (2011) Cancer Cell 19, 283-294). […] To further confirm FLT3 downregulation following PRMT5 knockdown, kinase activity was measured by detecting phosphorylated STAT5 levels. […]

[4] = tested on: SP1 protein in AML cell lines (FLT3-ITD and FLT3-WT); test: SP1 protein levels, Western blotting
Description: Whole cell lysates were prepared by suspending cell pellets in RIPA buffer for 20 min (1% NP-40, 0.1% SDS, 150 mM NaCl, 50 mM Tris, pH 8.0), then supplemented with 1× complete EDTA free protease inhibitor (Roche) and 1× PhosStop (Roche). Lysates were separated by 4-20% SDS-PAGE and transferred to PVDF membrane (GE Healthcare, Piscataway, N.J.). Membranes were blocked with 5% milk or BSA in 1×TBS with 0.1% Tween 20 for 1 hour at room temperature with shaking. Primary antibodies for ACTIN, GAPDH and FLT3 (Santa Cruz Biotechnology, Santa Cruz Calif.), P65 (Cell signaling), PRMT5 and SP1 (Millipore), H4R3, H3R8, H3 and H4 (Abcam), were diluted 1:1000 or 1:2000 in 5% milk or BSA and incubated for 1-2 hr at room temperature. Membranes were washed using 1×TBS-T, incubated with HRP-conjugated secondary antibodies diluted in 1×TBS-T with 5% milk or BSA, washed, and developed using SuperSignal West Dura Chemiluminescent Substrate (Thermo Scientific). […]
A similar trend was documented in the in vivo murine model of PRMT5 overexpression generated by THP-1/PRMT5 engraftment, as a significant increase in SP1 levels was measured when compared to THP-1/EV control mice (FIG. 45). […]

miR-29b in AML cells = test: miR-29b levels, qRT-PCR
Description: as §2
The regulatory region of pri-miR-29b was later checked for possible docking of PRMT5 (indirect binding) or H3R8me2 and/or H4R3me2 (direct binding) using ChIP assay with and without PRMT5 inhibition. […] The efficiency of miR-29b in modulating SP1 was confirmed by miR-29b gain- and loss-of function assays in AML cells, and significant suppression of SP1 in miR-29b overexpressing cells was detected, while SP1 was re-expressed when cells were treated with miR-29b knockdown (FIGS. 49A and 49B). […] As a result, SP1 transcription activity may increase, for example, in response to removal of miR-29b inhibitory effects and active SP1 in turn may promote FLT3 expression.
Referring to FIG. 50A-C, a qRT-PCR assay was used to measure transcript levels of pri-miR-29b (isoforms pri-miR-29b-1 and pri-miR-29b-2) in AML cell lines and patient blasts following PRMT5 inhibition. […]

## CCn1c2ccccc2c2cc(CNCc3ccccc3OC)ccc21 [HLCL-61]
[1]; 24 h incubation
  IC50: 44 µM
[1]; 48 h incubation
  IC50: 29 µM
[1]; 72 h incubation
  IC50: 28 µM
[2]; 24 h
  EC50: 15 µM
[2]; 48 h
  EC50: 11 µM
[3]
  wild-type or mutated FLT3 RNA and protein: significant downregulation
[4]
  SP1 protein levels: significant knockdown of SP1 protein levels
miR-29b in AML cells; AML cell lines and patient blasts
  pri-miR-29b transcript levels (pri-miR-29b-1 and pri-miR-29b-2): substantial and dose-dependent increase
miR-29b in AML cells; MV4-11 and THP-1 cells
  miR-29b levels: significant increase in miR-29b levels
